Here are results for one molecule from US20130029928A1 (priority 2010, published 2013).

One data set deals with OVCAR-3. Nature of the data set: ATP depletion cytotoxicity assay 48 hr. The note with it: Homo sapiens. The class given is cell-based.
In a further data set the test system is HepG2. Nature of the data set: ATP depletion cytotoxicity assay 48 hr. The data set is classed as cell-based, human.
Data set [1] is described as follows: Phase I study CXR1002-001: urinary excretion. Particulars: 24 hour urine post each weekly dose. The class given is in vivo, human.
A further data set deals with SW1353. Nature of the data set: ATP depletion cytotoxicity assay 48 hr. The class given is cell-based, human.
The subject of data set [2] is patients with advanced cancer. Nature of the data set: Phase I study CXR1002-001: plasma HDL-C and LDL-C. The class given is in vivo, human. Particulars: 6 weeks of treatment, % baseline. An excerpt:
Individual patient raw data was captured and represented in graphs as % change from baseline (screening). […] Data represents either mean±SEM values or median, range+individual data points.

Data set [3] concerns panel of human tumour-derived cell lines. As to the kind of experiment: BrdU incorporation (cell proliferation) in the SRB cell line panel. The data set is classed as cell-based. Particulars: 48 hrs. Background: Uptake of a labelled nucleoside into DNA is a usual measure of proliferation.
Another data set deals with PANC-1. Nature of the data set: ATP depletion cytotoxicity assay 48 hr. The class given is cell-based, human.
The test system of data set [4] is pregnenolone X receptor (PXR). The note with it: species-specific basis; Ren (2009); cited from earlier work.
The next data set deals with HPAFII. As to the kind of experiment: ATP depletion cytotoxicity assay 48 hr. The class given is cell-based, human.
[5] abbreviates: read-out: IC50 1-4 (independent replicates).

SMILES strings stand for the structures. Several values for one entry are separate records, joined by “and”; a condition that tells them apart may be missing. Identical values can stand only once. Like-named read-outs stand apart in the source and are kept apart here.

Usually IC50 stands for the concentration at which inhibition is half-maximal.

Description for HPAFII: (§1) Following exposure to Test Items, the CellTitre-Glo Luminescent Cell Viability Assay to measure ATP content was performed according to the manufacturer's detailed instructions (Promega Corporation, Technical Bulletin No. 288, and Cell notes, Issue 10, 2004).
(§2) Cells were plated at the optimal plating density for that cell line in 96-well plates and allowed to attach overnight. […] Cells were exposed to these compounds in Roswell Park Memorial Institute (RPMI) medium containing 10% Foetal Calf Serum (FCS) and 2 mM Glutamine at 37° C. and 5% CO2 for 48 hours. There were 3 replicates for each test item concentration.
(§3) Following exposure to Test Items, the CellTitre-Glo Luminescent Cell Viability Assay to measure ATP content will be performed according to the manufacturer's detailed instructions (Promega Corporation, Technical Bulletin No. 288, and Cell notes, Issue 10, 2004).
Description for HepG2: (§4) Assay replicates were independent in time and up to 4 replicates were performed per cell line.
(§5) Cells were plated at the optimal plating density for that cell line in 96-well plates and allowed to attach overnight. The next day, the medium was removed and replaced with fresh medium containing the dose ranges of test items. […] There were 3 replicates for each test item concentration.
as §1
Cells were plated at the optimal plating density for that cell line in 96-well plates and allowed to attach overnight. The next day, cells were pre-treated with the inhibitors UO126 or LY294002 (see Tables 18 & 20) for 2 hrs, the medium was removed and replaced with fresh medium containing the appropriate dose of the test item. […] Cells were exposed to these compounds in Roswell Park Memorial Institute (RPMI) medium containing 10% Foetal Calf Serum (FCS) and 2 mM Glutamine at 37° C. and 5% CO2 for 48 hours. There were 3 replicates for each test item concentration.
as §3
Description for OVCAR-3: as §4, §5, §1
Cells were plated at the optimal plating density for that cell line in 96-well plates and allowed to attach overnight. The next day, cells were pre-treated with the inhibitors UO126 or LY294002 (see Tables 18 & 20) for 2 hrs, the medium was removed and replaced with fresh medium containing the appropriate dose of the test item. […] Cells were exposed to these compounds in Roswell Park Memorial Institute (RPMI) medium containing 10% Foetal Calf Serum (FCS) and 2 mM Glutamine at 37° C. and 5% CO2 for 48 hours. There were 3 replicates for each test item concentration. […]
Description for PANC-1: as §1, §2, §3
Description for SW1353: as §1, §2, §3

As for `O=C(O)C(F)(F)C(F)(F)C(F)(F)C(F)(F)C(F)(F)C(F)(F)C(F)(F)F` [CXR1002], the concentration for half-maximal inhibition (IC50) with OVCAR-3 (setting [5]) is 650 µM; in the data set with OVCAR-3 (read-out: IC50 Mean), 650 µM; with HepG2 (Homo sapiens, HepG2, 48 h, read-out: IC50 1-4 (independent replicates)) it was 240 µM; in the data set with HepG2 (Homo sapiens, HepG2, 48 h, read-out: IC50 Mean), 273 µM; in the data set with HepG2 (setting [5]), 230 µM and 350 µM; in the data set on SW1353 (Homo sapiens, SW1353, 48 h, read-out: IC50 1-4 (independent replicates)), over 1000 µM. Moreover, the IC50 was over 1000 µM with SW1353 (Homo sapiens, SW1353, 48 h, read-out: IC50 Mean); over 1000 µM with SW1353 (read-out: IC50 1-4 (independent replicates), ATP depletion, 48 hrs, SW1353); > 1 mM (2×) and 880 µM in the data set with PANC-1 (ATP depletion, 48 hrs, read-out: IC50 1-4 (independent replicates)); over 1000 µM in the data set with PANC-1 (Homo sapiens, PANC-1, 48 h, ATP depletion, 48 hrs, read-out: IC50 1-4 (independent replicates)); over 1000 µM with PANC-1 (Homo sapiens, PANC-1, 48 h, ATP depletion, 48 hrs, read-out: IC50 Mean); over 1000 µM in the data set on PANC-1 (Homo sapiens, PANC-1, 48 h, Example 7, 48 hour, CXR1002 0-1 mM, U0126 fixed 10 μM where combined, read-out: IC50). Also, the IC50 with HPAFII (Homo sapiens, HPAF-II, 48 h, read-out: IC50 1-4 (independent replicates), ATP depletion, 48 hrs, HPAFII) is over 1000 µM; in the data set on HPAFII (Homo sapiens, HPAF-II, 48 h, read-out: IC50 Mean, ATP depletion, 48 hrs, HPAFII), over 1000 µM; in the data set on HPAFII (read-out: IC50 1-4 (independent replicates), ATP depletion, 48 hrs, HPAFII), > 1000 µM and 750 µM. Moreover, in data set [1], the urinary excretion entry is “increases with multiple doses”. Further, the “effect on plasma HDL-C” value in data set [2] was “remains unchanged”. For the same molecule, the “effect on plasma LDL-C” value in data set [2] is “lowering effect”. For the same molecule, the BrdU incorporation result was “No marked effects” in data set [3] (10 μM); “variable” in data set [3] (30 μM); “Significant suppression of BrdU incorporation” in [3] (300 μM, all but one of the cell lines). The “activation of PXR” value in data set [4] was “are activated”.
